In patent US9657260B2, “Method and system for continous monitoring of toxicity” (Yissum Research Development Company of The Hebrew …, priority 2014, dated 2017):
“And” between values parts separate entries of the source, which are not always exact repeats. Equal entries are not always repeated. “Also recorded” adds a separate entry of the source.

Columns and labels:
HepG2/C3A spheroids = format: cell-based, human
Experimental: Quantitative Real Time Polymerase Chain Reaction (qRT-PCR). RNA was isolated and purified utilizing Macherey-Nagel NucleoSpin RNA II kit according to manufacturer instructions. RNA concentration and purity was determined using NanoDrop ND-1000 spectrophotometer (Thermo Fisher Scientific, USA). cDNA was synthesized from 1 μg RNA sample using qScript cDNA SuperMix (Quanta BioSciences, USA) according to the manufacturer protocol. Gene expression analysis was carried out utilizing KAPA SYBR FAST Universal 2X qPCR Master Mix (Kapa Biosystems, Boston, USA) on BioRad CFX96 Real-Time System (New South Wales, Australia), according to the manufacturer protocol. Gene transcription was evaluated using the ΔΔCt method normalized to 60S ribosomal protein L32 (RPL32) or ubiquitin C (UBC).

in vitro = conditions: human
Experimental: (§1) Reactor Seeding. The following steps of cell seeding and reactor assembly were carried out in a sterile hood. Prior to seeding cells into the reactor, the PDMS-based well unit and all tubings were cleaned and sterilized with 70% EtOH, washed with ddH2O, dried and subsequently exposed to UV light for at least 30 min. The cells were detached from the tissue culture substrate with trypsin-EDTA (Biochrom, Berlin, Germany), counted, centrifuged at 280 rpm for 5 min at 4° C. and resuspended with 100 μl of collagen type I solution to a final density of 4×10^6 cells per device. During resuspension of the cells, 300 μg to 500 μg oxygen sensing beads (CPOx-50-RuP, Colibri Photonics, Potsdam, Germany) were added, resulting in at least ten to 20 beads per microwell after completion of the cell seeding protocol. The collagen type I solution was made of 560 μl ddH2O, 100 μl PBS (10×), 6.25 μl of 1 N NaOH and 333 μl of collagen type I (3.6 mg ml^−1, BD Biosciences, San Jose, Calif., USA). The PDMS microwells were primed for 5 min on ice with this solution in order to eliminate air bubbles from the wells. Subsequently, 100 μl of collagen type I suspension containing cells and oxygen-sensing beads was placed on top of the PDMS-based well unit, thus covering all nine microwells. The unit was kept in a sterile 50.8 mm petri dish placed on ice for 5 min in order to allow the cells to sediment into the wells. The low temperature prevented premature collagen polymerization and the induction of cellular stress response pathways. Afterwards, excess cell and microbead suspension was gently but thoroughly wiped off the PDMS-based well unit using a sterile glass coverslip (FIG. 2C) leading to a concentration of 100,000 cells/well. The inoculated well unit was then incubated for 5 min at 37° C. in a humidified cell incubator (see above) at 5% CO2 in order to polymerize the collagen and by this immobilize the cells and microbeads in the wells. Following polymerization, the well unit, loaded with the cells, was immersed in 5 ml of MEM medium (composition see above) for 20 min at 37° C. in a cell incubator (see above). Subsequently, the PDMS-based well unit was transferred into the bioreactor. After sealing, the bioreactor was placed into the climate control chamber (37° C., ACUO2, Evotec, Germany) of an inverted fluorescence microscope (IX81, Olympus, Japan) and perfused with MEM (composition see above) supplemented with 10 mM HEPES with a flow rate of 10 μl min^−1 using a syringe pump (Harvard Apparatus, USA). The automated and motorized microscope stage was equipped with a holder for three microreactors, allowing for performing three experiments simultaneously.
(§2) Chemical compound injection. […] Succinate as the substrate for complex II was used as an electron donor for the putatively toxicologically affected complex I in the mitochondrial electron transfer system (ETS), whereas TMPD was used to donate electrons to cytochrome c in order to test for a putative toxicological effect on complex III in the ETS. Ascorbate was used to maintain TMPD in a reduced state. The cytotoxic effects were evaluated by real-time monitoring of the change in oxygen consumption and for subsequent confirmation of the toxicological endpoints also by specific conventional staining assays (see below).
(§3) Oxygen measurement. Real-time oxygen measurements were performed optically by means of phosphorescence quenching. Biocompatible polystyrene microbeads with a diameter of 50 μm equipped with a ruthenium-phenanthroline-based phosphorescence dye (CPOx-50-RuP, Colibri Photonics, Potsdam, Germany) were used as microprobes and were coimmobilized with the cells (FIG. 1D) in the collagen matrix during reactor seeding (described above). The electronic measurement system (OPAL, Colibri Photonics, Germany) comprises a control module, an LED as the excitation source and a detector unit (FIG. 1A).

HepG2/C3A cells [1] = assay: Electrochemical glucose and lactate sensing at the bioreactor outflow; format: cell-based, human; conditions: 50 μM; for lactate over glucose ratio reached after exposure: before exposure 1.3 (rotenone), 1.2 (Troglitazone)
Experimental: Cells respond to mitochondrial dysfunction by adapting their metabolic response to circumvent oxidative phosphorylation. To track this response electrochemical sensors for glucose and lactate were attached to bioreactor outflow in a PMMA housing with 16 μl dead volume (FIG. 5 A-C). Samples were collected sequentially using a computer controlled microfluidic switchboard (FIG. 5D). Micromechanical valves (FIG. 5E) introduced a sequence of (1) washing buffer, (2) air bubble interface, and (3) a bioreactor sample every hour. Proof of principle was shown with 50 μM rotenone, a direct mitochondrial C1 inhibitor, causing an 80% loss in respiration (FIG. 5F). […] Importantly, the system is sensitive enough to detect minute signals and off target effects. […] Lactate over glucose ratio increases slightly from 1.2 to 1.8, showing a shift toward glycolysis (FIG. 5I).

HeLa cells = assay: Real-time oxygen uptake of HeLa cells in the bioreactor; format: cell-based, human; conditions: for effect of ascorbate and TMPD on the loss of oxygen uptake: 10 μM, preincubation with 2 mM ascorbate and 0.5 mM TMPD
Text: Chemical compound injection.
Oxygen measurement. […] Thus, the camera port was kept available for imaging.

HepG2/C3A cells [2] = assay: in vitro; conditions: for % of normal respiration: within 60 minutes (fast phase); for time to onset of mitochondrial (respiratory) damage: human
Experimental: as §1, §2, §3

HepG2/C3A cells [3] = assay: HCS LipidTOX staining for steatosis and phospholipidosis; format: cell-based, human; conditions: 24 hr exposure to amiodarone (200 pM as printed elsewhere in the source)
Experimental: Steatosis and phospholipidosis were evaluated using the HCS LipidTOX™ system (Life Technologies, USA) according to manufacturer directions. Briefly, cells were incubated with green neutral lipid and red phospholipidosis dyes and counterstained with 1 μg/mL Hoechst 33342 for 30 min, and washed with PBS. LipidTOX green and red staining intensity were normalized to number of Hoechst-labeled nuclei.

[4] = HeLa cells, 12.5 mM acetaminophen

C[S+](C)[O-] [DMSO]
cell viability (HepG2/C3A spheroids): little affect on cell viability | increase in PXR expression (HepG2/C3A spheroids): 8 fold | increase in MRP3 expression (HepG2/C3A spheroids; 1%, 28 days): 10 fold

Cc1c(C)c2c(c(C)c1O)CCC(C)(COc1ccc(CC3SC(=O)NC3=O)cc1)O2 (centres unmarked) [Troglitazone]
CC50 (in vitro): 300 µM | lactate over glucose ratio reached after exposure (HepG2/C3A cells [1]): 1.8

CC(=O)Nc1ccc(O)cc1 [acetaminophen]
mitochondrial respiration immediately after exposure (HeLa cells; [4]): identical rapid loss of mitochondrial respiration; also recorded: identical immediate loss of mitochondrial respiration | second dose-independent phase of toxicity (HeLa cells; [4]): failed to display the second dose-independent phase of toxicity; also recorded: absent in HeLa cells | time at which the rapid loss of respiration ends (HeLa cells; [4]): 60 min | effect of ascorbate and TMPD on the toxic response (HeLa cells; HeLa, 12.5 mM acetaminophen, 2 mM ascorbate and 0.5 mM TMPD): eliminated the toxicity; also recorded: abrogated the toxic response | effect of succinate on the toxic response (HeLa cells; HeLa, 12.5 mM acetaminophen, preincubation with 20 mM succinate): no effect on the toxicity; also recorded: did not affect HeLa response | % of normal respiration (HepG2/C3A cells [2]; 8 mM acetaminophen): 70% | % of normal respiration (HepG2/C3A cells [2]; 12.5 mM acetaminophen): 55% | % of normal respiration (HepG2/C3A cells [2]; 16 mM acetaminophen): 25%

CCCCc1oc2ccccc2c1C(=O)c1cc(I)c(OCCN(CC)CC)c(I)c1 [amiodarone]
increase in intracellular lipids (steatosis) (HepG2/C3A cells [3]): 2.1 fold and 2 fold and > 2 fold | increase in phospholipidosis (HepG2/C3A cells [3]): 2.4 fold and 2.5 fold and > 2 fold | time to onset of mitochondrial (respiratory) damage (HepG2/C3A cells [2]; 200 µM): 15 h | time to onset of mitochondrial (respiratory) damage (HepG2/C3A cells [2]; 500 µM): 6 h | time to onset of mitochondrial (respiratory) damage (HepG2/C3A cells [2]; 1000 µM): 2 h

C=C(C)[C@H]1Cc2c(ccc3c2O[C@@H]2COc4cc(OC)c(OC)cc4[C@@H]2C3=O)O1 [rotenone]
loss in respiration (HepG2/C3A cells [2]; 50 μM): 80% | glucose uptake after 6 hours (HepG2/C3A cells [1]; after 6 hours, shift to glutaminolysis): loss of glucose uptake | lactate over glucose ratio reached after exposure (HepG2/C3A cells [1]): 2.5

Antimycin A
effect of ascorbate and TMPD on the loss of oxygen uptake (HeLa cells; HeLa): abrogated | effect of ascorbate and TMPD on the loss of oxygen uptake (HeLa cells; HeLa, listed as antimycin A): abrogated the toxic response
